Experimental data taken from patent EP2457593A1, “Cyclic RGD peptides of amino acids based on thiazoles or oxazoles as selective antagonists of the alpha-v beta-3 integrin” (Lykera Biomed S.A., priority 2010, dated 2012).

Columns and labels:
HUVEC cell line [1] = assay: Cell adhesion inhibition, collagen (COL) as ligand (αv-integrin independent control), HUVEC; type: cell-based, human
Protocol: (§1) Figure 1. […] A) Using vitronectin (VN) as ligand. B) Using fibrinogen (FB) as ligand. Figure 2. […] Figure 3. […] A) Using fibronectin (FN) as ligand. B) Using collagen (COL) as ligand.
(§2) Biological experiments. Cells were grown in DMEM High Glucose (GIBCO, Ref: 31966), supplemented with 10% FCS (GIBCO, 10106-169) at 37°C and 5% CO2. Cells were expanded when they reached 90% confluence. Non-tissue culture treated ELISA plates were coated at 4°C with the appropriate concentration of the ligand (depending on the cell line). The coating solution was discarded and the wells were blocked with blocking solution (1.5% BSA; 60 minutes at 37°C). The blocking solution was discarded by flicking and serial dilutions of the compounds were plated in duplicates. Immediately, harvested cells were plated at a given concentration (20000-25000 /well for HUVEC and DAOY and 50000 for HT-29) to the same plate. Plates were incubated for 60-90 min at 37°C to allow cell adhesion and spreading on the ligands. […] Adsorption was read at OD 405nm.
(§3) Each plate contains positive and negative controls and peptides were tested as duplicates. Each assay has been repeated at least twice and the adhesion inhibition EC50 was calculated, when possible, using the Prism-4 software based on the sigmoidal dose-response (variable slope) equation. […]

DAOY (αvβ3 /αvβ5) = assay: Cell adhesion inhibition, vitronectin (VN) as ligand, DAOY; type: cell-based, human; details: coating 0.5 µg/ml, read-out: Adhesion inhibition - EC-50
Protocol: (§4) Biological experiments. Cells were grown in DMEM High Glucose (GIBCO, Ref: 31966), supplemented with 10% FCS (GIBCO, 10106-169) at 37°C and 5% CO2. Cells were expanded when they reached 90% confluence. Non-tissue culture treated ELISA plates were coated at 4°C with the appropriate concentration of the ligand (depending on the cell line). The coating solution was discarded and the wells were blocked with blocking solution (1.5% BSA; 60 minutes at 37°C). The blocking solution was discarded by flicking and serial dilutions of the compounds were plated in duplicates. Immediately, harvested cells were plated at a given concentration (20000-25000 /well for HUVEC and DAOY and 50000 for HT-29) to the same plate. Plates were incubated for 60-90 min at 37°C to allow cell adhesion and spreading on the ligands. Plates were washed three times with PBS and 100 µl/well of Hexosaminidase Substrate solution was added. Plates were incubated at 37°C during 3 hours and then stop solution was added. Adsorption was read at OD 405nm.
(§5) Each plate contains positive and negative controls and peptides were tested as duplicates. Each assay has been repeated at least twice and the adhesion inhibition EC50 was calculated, when possible, using the Prism-4 software based on the sigmoidal dose-response (variable slope) equation.
(§6) The different RDG derivates based on thiazole-amino acid structures were tested for their biological activity such as inhibition of cell adhesion using three different cell systems and three integrin ligands for each cell line (vitronectin (VN), fibrinogen (FB) and fibronectin (FN) and collagen (COL)). The cell lines used for the study were: DAOY human […] cells and HUVEC human umbilical vein endothelial cells as primary cell culture, which overexpresses in both members, αvβ3 and αvβ5, of the αv-integrin family, and HT29 human colon adenocarcinoma, which overexpresses in both members, αvβ5 and αvβ6, of the αv-integrin family. […]

HUVEC cell line [2] = assay: Cell adhesion inhibition, fibronectin (FN) as ligand (αv-integrin independent control), HUVEC; type: cell-based, human
Protocol: as §1, §2, §3

HUVEC (αvβ3/αvβ5) = assay: Cell adhesion inhibition, vitronectin (VN) as ligand, HUVEC; type: cell-based, human; details: coating 0.75 µg/ml, read-out: Adhesion inhibition - EC-50
Protocol: as §4, §5
(§7) The different RDG derivates based on thiazole-amino acid structures were tested for their biological activity such as inhibition of cell adhesion using three different cell systems and three integrin ligands for each cell line (vitronectin (VN), fibrinogen (FB) and fibronectin (FN) and collagen (COL)). The cell lines used for the study were: DAOY human […] cells and HUVEC human umbilical vein endothelial cells as primary cell culture, which overexpresses in both members, αvβ3 and αvβ5, of the αv-integrin family, and HT29 human colon adenocarcinoma, which overexpresses in both members, αvβ5 and αvβ6, of the αv-integrin family.
(§8) In the experiments using VN as integrin ligand, both HUVEC and DAOY cells use αvβ3 and αvβ5 to adhere to VN; while HT29 cells use only αvβ5 to adhere to VN. In contrast, in the experiments using FB as integrin ligands, both HUVEC and DAOY cells use αvβ3 to adhere to FB, and the experiments using FN and COL were to control that the compounds could no inhibit the independent cell adhesion.

DAOY (αvβ3) = assay: Cell adhesion inhibition, fibrinogen (FB) as ligand, DAOY; type: cell-based, human; details: coating 5.0 µg/ml, read-out: Adhesion inhibition - EC-50
Protocol: as §4, §5, §6

HT-29 (αvβ5) = assay: Cell adhesion inhibition, vitronectin (VN) as ligand, HT-29; type: cell-based, human; details: for EC50: VN ligand, HT-29, coating 4.0 µg/ml, read-out: Adhesion inhibition - EC-50; for blocking activity against αvβ5: HT29-VN cell system
Protocol: as §4, §5, §7, §8

HUVEC cell line [3] = assay: Inhibition of cell adhesion, first series of experiments, HUVEC cell line (ligand not specified); type: cell-based, human; details: for biological activity (inhibition of cell adhesion), in words: HUVEC cell line, first series of experiments
Protocol: as §4, §5, §7
In the first series of experiments compounds 1-5 were tested using HUVEC cell line showing that only compounds 4 and 5 were active.

HUVEC (αvβ3) = HUVEC (αvβ3) (Homo sapiens, UniProt P05106+P06756); assay: Cell adhesion inhibition, fibrinogen (FB) as ligand, HUVEC; type: cell-based; details: from adhesion of the HUVEC and DAOY cells to FB
HUVEC (αvβ3), sequence (P06756 31-1048): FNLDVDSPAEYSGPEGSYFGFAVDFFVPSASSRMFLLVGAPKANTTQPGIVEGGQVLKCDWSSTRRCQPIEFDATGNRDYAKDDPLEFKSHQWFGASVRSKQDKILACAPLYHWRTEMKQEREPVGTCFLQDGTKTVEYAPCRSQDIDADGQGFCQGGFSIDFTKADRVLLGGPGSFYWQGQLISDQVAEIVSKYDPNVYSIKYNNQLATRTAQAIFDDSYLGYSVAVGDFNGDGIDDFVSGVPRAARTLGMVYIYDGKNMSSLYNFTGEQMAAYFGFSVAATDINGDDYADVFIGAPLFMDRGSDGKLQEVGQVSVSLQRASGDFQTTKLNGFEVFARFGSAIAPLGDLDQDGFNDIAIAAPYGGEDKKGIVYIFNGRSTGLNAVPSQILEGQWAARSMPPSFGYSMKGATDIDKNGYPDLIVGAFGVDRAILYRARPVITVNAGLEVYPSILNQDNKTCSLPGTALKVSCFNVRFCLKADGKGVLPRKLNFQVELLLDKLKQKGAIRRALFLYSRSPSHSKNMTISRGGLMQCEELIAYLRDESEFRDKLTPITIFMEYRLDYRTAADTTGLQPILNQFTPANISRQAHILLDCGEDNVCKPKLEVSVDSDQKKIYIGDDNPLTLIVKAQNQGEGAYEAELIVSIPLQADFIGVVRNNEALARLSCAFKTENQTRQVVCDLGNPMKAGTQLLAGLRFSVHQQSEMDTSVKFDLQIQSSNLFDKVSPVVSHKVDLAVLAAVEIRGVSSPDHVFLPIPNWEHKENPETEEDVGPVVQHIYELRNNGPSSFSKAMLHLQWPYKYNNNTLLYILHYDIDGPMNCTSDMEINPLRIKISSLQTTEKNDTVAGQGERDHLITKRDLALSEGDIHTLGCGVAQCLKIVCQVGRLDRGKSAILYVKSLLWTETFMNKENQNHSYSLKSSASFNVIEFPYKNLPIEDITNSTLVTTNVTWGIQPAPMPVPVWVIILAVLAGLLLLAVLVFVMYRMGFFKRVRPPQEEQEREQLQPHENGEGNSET
HUVEC (αvβ3), sequence (P05106 27-788): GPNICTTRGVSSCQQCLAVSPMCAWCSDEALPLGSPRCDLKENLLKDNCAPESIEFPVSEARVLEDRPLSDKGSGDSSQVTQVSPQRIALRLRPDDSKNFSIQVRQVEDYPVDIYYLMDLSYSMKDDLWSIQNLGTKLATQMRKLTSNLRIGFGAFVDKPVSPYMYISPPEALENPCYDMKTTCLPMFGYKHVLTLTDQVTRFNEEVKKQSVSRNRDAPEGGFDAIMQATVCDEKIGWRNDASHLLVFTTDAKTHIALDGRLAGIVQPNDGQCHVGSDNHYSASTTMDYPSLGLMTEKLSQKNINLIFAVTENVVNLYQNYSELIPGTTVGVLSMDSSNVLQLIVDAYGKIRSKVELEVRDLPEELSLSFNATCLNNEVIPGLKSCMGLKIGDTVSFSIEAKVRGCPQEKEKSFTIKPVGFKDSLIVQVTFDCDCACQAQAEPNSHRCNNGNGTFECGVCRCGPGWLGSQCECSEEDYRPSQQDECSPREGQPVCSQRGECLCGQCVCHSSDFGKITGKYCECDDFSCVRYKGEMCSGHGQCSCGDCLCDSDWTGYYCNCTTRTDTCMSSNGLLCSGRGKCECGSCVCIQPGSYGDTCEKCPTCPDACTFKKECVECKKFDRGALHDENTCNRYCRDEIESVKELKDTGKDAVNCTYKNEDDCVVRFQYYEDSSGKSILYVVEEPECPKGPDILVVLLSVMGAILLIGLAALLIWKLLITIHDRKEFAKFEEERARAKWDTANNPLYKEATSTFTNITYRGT

EC50 (DAOY (αvβ3 /αvβ5)) [µM]	EC50 (DAOY (αvβ3)) [nM]	EC50 (HT-29 (αvβ5)) [µM]	SMILES	inhibit cell adhesion to αv-integrin independent cell adhesion (COL coating) (HUVEC cell line [1])	inhibit cell adhesion to αv-integrin independent cell adhesion (FN coating) (HUVEC cell line [2])	EC50 (HUVEC (αvβ3/αvβ5)) [µM]	activity in all cell systems used in the study, in words (HUVEC cell line [3]; all cell systems used, compound 3 has values for HUVEC only)	biological activity (inhibition of cell adhesion), in words (HUVEC cell line [3])	blocking activity against αvβ5 (HT-29 (αvβ5))	selectivity for the αvβ3 integrin, in words (HUVEC (αvβ3))
0.068	59	2.24	CC(C)[C@H]1C(=O)N[C@@H](CCCNC(=N)N)C(=O)NCC(=O)N[C@@H](CC(=O)O)C(=O)N[C@H](Cc2ccccc2)C(=O)N1C [Cilengitide, reference compound]	none of the compounds, including the reference one (Cilengitide) would inhibit cell adhesion	none of the compounds, including the reference one (Cilengitide) would inhibit cell adhesion	0.56	–	–	–	–
–	–	–	N=C(N)NCCC[C@@H]1NC(=O)c2csc(n2)CNC(=O)[C@H](CC(=O)O)NC(=O)CNC1=O [Compound 3, Cyclo-[Arg-Gly-Asp-Thz1X-]]	–	–	31.1	inactive	–	–	–
5.71	82	53.2	N=C(N)NCCC[C@@H]1NC(=O)c2csc(n2)-c2csc(n2)CNC(=O)[C@H](CC(=O)O)NC(=O)CNC1=O [Compound 4, Cyclo-[Arg-Gly-Asp-Thz2X-]]	–	–	7.46	–	active	no blocking activity	selective antagonists of the αvβ3 integrin
6.8	1860	59.1	N=C(N)NCCC[C@@H]1NC(=O)c2csc(n2)-c2csc(n2)-c2csc(n2)CNC(=O)[C@H](CC(=O)O)NC(=O)CNC1=O [Compound 5, Cyclo-[Arg-Gly-Asp-Thz3X-]]	–	–	63.8	–	active	no blocking activity	selective antagonists of the αvβ3 integrin
